The source of these data is patent publication US20240110004A1 (Northwestern University, priority 2022, published 2024).

One series concerns the target pepsin (Sus scrofa, UniProt P00791).
For series [1], the system named is HdhQ111 cells. The series can be described thus: Cell viability (cell rescue) of serum-starved HdhQ111 cells. As to conditions: 3 μM with respect to peptide, once a day for 3 days; compared to the vehicle control. The series is classed as cell-based, mouse. As to the method:
FIG. 3A: Cell viability of HV3-TAT peptide and PLPs. Compounds treated to the HdhQ111 cells once a day for 3 days. Concentration was 3 μM with respect to peptide. FIG. 3B: VCP binding assay results for HV3-TAT, P1, P2, and P4.
Cell Viability Methods: In vitro assays were carried out to examine the bioactivity of the PLPs, P1, P2, P3, and P4 and to compare against the known, active HV3-TAT. […] HdhQ111 cells were immortalized from knock-in mice carrying 111 CAG repeats in the mouse Htt gene.
To verify that the PLPs retain bioactivity after being exposed to enzymes or serum treatments, the viability of HD mouse mutant striatal HdhQ111 cells was assessed following treatment with HV3-TAT and P1. […] Cells were maintained at 33° C. and 5% CO2 with a relative humidity of 95%. HdQ111 cells were plated in 96-well plates at a density of 5000 per well and then left to attach for 24 h. Cells were treated with HV3-TAT or PLPs at 3 μM with respect to peptide once a day, for 3 days. The medium was replaced every day. After 72 h, cells were washed 3 times with PBS buffer. At this point, 20 μL of CTB reagent in 80 uL of medium was added, and the cells incubated for 3 hours at 37° C. Fluorescence was measured at 590 nm with excitation at 560 nm using a Perkin Elmer EnSpire plate reader. The average background fluorescence of CTB in media without cells was subtracted from the average fluorescence readings of the experimental wells. Viability was calculated as the average background-subtracted signal in a well compared to that of a negative control well (treatment with vehicle or media). Three replicates were performed for each independent sample. 10% DMSO was used as a positive control and untreated cells in complete medium as a negative control. Viability is reported as a percentage of untreated cells.

In series [2] the target is T1, interaction between VCP and mtHtt (Homo sapiens, UniProt P55072).
T1 construct: GFP; expressed in transfected cells; host or cells: HEK293
Description: VCP binding assay: association of VCP to mtHtt by immunoprecipitation and western blot in HEK293 cells. The series is classed as cell-based. Particulars: HEK293 cells co-transfected with GFP-VCP and myc-Q73 FL, 3 μM, three doses. As to the method:
Therefore, target engagement protein binding assays were conducted. HEK293 cells were cultured and plated one day before treatment. Cells were pre-treated with HV3-TAT or PLPs at 3 μM for 2 h. Cells were then co-transfected with GFP-VCP and myc-Q73 FL plasmids. Cells were treated with a second dose of peptide or PLPs 6 hours after transfection, and a final third dose of peptide or PLPs treatment was administered 24 hours after transfection. Cell total lysate was harvested 48 hours after transfection, and to confirm binding of PLPs to VCP in cells, association of VCP to mtHtt was quantified by immunoprecipitation (IP) followed by western blot upon treatment of HV3-TAT peptide and PLPs.
(In general: A western blot detects proteins with antibodies after separation by electrophoresis.)

The subject of a further series is R6/2 mice. The series can be described thus: mtHtt impact: mitochondrial VCP level and mtHtt aggregation in striatum. As to conditions: for VCP level on mitochondria of striatum: ATPB loading control; for mtHtt aggregation in striatum: compared to saline treated. The series is classed as in vivo, mouse. An excerpt: FIG. 34A-34B: Quantification of mitochondrial studies. FIG. 34A depicts quantification of immunoblot results for VCP levels on mitochondrial fractions from striatal extracts of WT and R6/2 mice after treatment (immunoblot not shown). ATPB refers to ATP-ase β subunit. p-value for: WT veh as compared to R62 veh: <0.0001; WT+P1 as compared to R62 veh: <0.0001; R62 veh as compared to R62+HV3-TAT: 0.0001; R62 veh as compared to R62+P1: 0.0184; R62+P1 as compared to R62+HV3-TAT: 0.2663. FIG. 34B depicts quantification of mtHtt aggregation after EM48 staining (stains not shown). p-value for: R62 veh as compared to R62+HV3-TAT: 0.0491; R62 veh as compared to R62+P1: 0.0189; R62+P1 as compared to R62+HV3-TAT: 0.8765.
In vivo Efficacy Methods—mtHtt Impact: As the pathophysiological hallmark of HD, the formation of mtHtt aggregates can be observed in striatum of HD mouse models, like R6/2 mice. […] HV3 peptide blocks mtHtt-VCP binding, and inhibits VCP mitochondrial accumulation, which reduce behavioral and neuropathological phenotypes of HD. Mitochondrial level of VCP and mtHtt aggregation were examined to test whether PLP recapitulates the mechanism of HV3 peptide. Mitochondrial fractions of striatum were isolated from mice in each treatment group. Protein levels of VCP on mitochondria were analyzed by western blotting, using ATPB as a loading control for mitochondria. mtHtt aggregation was visualized by immunohistochemical staining by anti-mtHtt antibody.

For another series, the target named is T2, VCP (Homo sapiens, UniProt P55072).
T2 construct: purchased Antibodies-online
Description: Bio-layer interferometry (BLItz) binding to VCP. As to the method: FIG. 14A-14B: Biolayer Interferometry (BLItz) measurements from in vitro assay evaluating binding between P1 and VCP (FIG. 14A) and between HV3-TAT peptide and VCP (FIG. 14B). FIG. 14A: lines from top to bottom: 100 μM, 10 μM, and 750 nM. FIG. 14B: lines from top to bottom: 10 μM, 7.5 μM, 5 μM, and 1.25 μM.
BLI Methods: With cellular VCP engagement verified as discussed in Example 2 (and shown in FIG. 3B), P1 was further assessed for VCP binding via Bio-layer Interferometry (BLI) to further study the interaction compared to HV3-TAT peptide. Binding affinity was measured by using BLItz instrument. The anti-HIS sensor (HIS2) was hydrated before the installation. After the sensor installation to the BLItz instrument, histidine tagged VCP proteins (50 μg/ml in sodium acetate buffer at pH 6.5) were immobilized on the sensor. HV3-TAT and P1 were dissolved in Tris buffer (pH 8.4) with a range of concentrations. Using BLItz instrument, the dissociation constant (KD), on-rate (ka) and off-rate (kd) of each analyte were measured.
(BLI is a label-free optical method that tracks binding on a fibre tip over time.)

Series [3] has as its system HdhQ111 cells. The series can be described thus: Mitochondrial fragmentation assay. The series is classed as cell-based, mouse. As to conditions: compared to vehicle treatment group, at least 100 cells per group. As for the experimental part: FIG. 8: Mitochondrial fragmentation assay. The percentage of HdhQ111 cells with fragmented mitochondria relative to the total number of cells was quantitated. At least 100 cells per group were counted.
FIG. 9: Mitochondrial fragmentation assay. Mitochondrial morphology was determined by staining cells with anti-Tom20 antibody. Nuclei: Hoechst 33342 stain. […] Scale Bars: 60 μm; 12 μm for inset.
Mitochondrial Fragmentation Methods: As preventing the fragmentation of the mitochondria is important for maintaining the health of striatal cells in the HD in vitro model, the PLP's abilities were tested in this regard.

Where [4] appears, read: bio-layer interferometry, VCP protein.

Where no end group is shown, it is not given here.

T2 sequence (P55072 whole entry, species assumed): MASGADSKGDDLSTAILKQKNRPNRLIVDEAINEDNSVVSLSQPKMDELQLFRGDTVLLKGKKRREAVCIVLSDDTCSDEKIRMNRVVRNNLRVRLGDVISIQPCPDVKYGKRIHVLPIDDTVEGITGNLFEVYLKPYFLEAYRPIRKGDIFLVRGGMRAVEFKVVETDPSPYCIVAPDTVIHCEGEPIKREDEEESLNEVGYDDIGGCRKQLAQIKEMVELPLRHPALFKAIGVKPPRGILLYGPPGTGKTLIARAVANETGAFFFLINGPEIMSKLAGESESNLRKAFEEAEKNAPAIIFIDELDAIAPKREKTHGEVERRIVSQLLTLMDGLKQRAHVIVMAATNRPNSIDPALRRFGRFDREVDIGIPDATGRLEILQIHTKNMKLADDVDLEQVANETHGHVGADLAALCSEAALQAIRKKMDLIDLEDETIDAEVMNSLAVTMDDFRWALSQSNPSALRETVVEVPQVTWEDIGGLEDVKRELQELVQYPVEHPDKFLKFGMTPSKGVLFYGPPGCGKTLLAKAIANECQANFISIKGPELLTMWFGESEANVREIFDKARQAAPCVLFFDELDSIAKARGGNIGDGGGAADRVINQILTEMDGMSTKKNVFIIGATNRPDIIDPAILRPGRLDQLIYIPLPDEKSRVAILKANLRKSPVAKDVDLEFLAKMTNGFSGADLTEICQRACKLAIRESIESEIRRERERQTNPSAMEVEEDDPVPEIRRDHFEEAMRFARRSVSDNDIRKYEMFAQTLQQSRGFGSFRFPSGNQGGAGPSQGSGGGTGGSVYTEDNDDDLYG
Sequence of pepsin (P00791 60-385): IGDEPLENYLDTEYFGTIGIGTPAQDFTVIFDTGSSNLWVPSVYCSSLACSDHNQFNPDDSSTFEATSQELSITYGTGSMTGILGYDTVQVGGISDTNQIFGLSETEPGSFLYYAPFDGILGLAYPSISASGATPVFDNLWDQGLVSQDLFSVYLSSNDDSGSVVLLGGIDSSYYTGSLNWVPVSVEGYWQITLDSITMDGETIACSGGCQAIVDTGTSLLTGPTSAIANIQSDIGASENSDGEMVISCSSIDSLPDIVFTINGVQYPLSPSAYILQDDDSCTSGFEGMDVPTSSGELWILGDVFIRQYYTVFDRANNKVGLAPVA
T1 sequence (P55072 whole entry): as the sequence (P55072 whole entry, species assumed) above
Description for pepsin: Stability of PLPs Methods I: For enzyme-induced cleavage experiments, the molar concentration of enzymes was set to 0.1 μM. The concentration of side-chain peptides (having sequence identity of SEQ ID: 1) varied in the range of 50-200 μM. For each enzyme, temperature was set for optimal enzyme activity. In a typical experiment, P1 or HV3-TAT was dissolved in DPBS (pH 7.4) or hydrochloric acid solution (pH 2), to obtain a stock polymer/peptide solution with a peptide concentration of 200 μM. Next, 5 μL of enzyme stock solution (10 μM) was added into 500 μL of the polymer/peptide solution which was subsequently stirred in a preheated oil bath at 37° C. In this case, the molar ratio of peptide substrate to enzymes was 2000:1. During the cleavage, aliquots were taken for HPLC analysis at predetermined time points. Each degradation experiment was repeated three times. Enzyme pretreated P1 was also run on SDS-PAGE and visualized with Coomassie Blue staining.

With “P1: PLP homopolymer having peptide side chains of SEQ ID: 1 (HVLVMSATRR), made by ROMP of norbornene peptide monomer M1 (also: side chains of polynorbornene homopolymer (PLP, ROMP of norbornene peptide monomer))”, the cleavage by pepsin entry with pepsin is “no cleavage observed”. Moreover, the cell viability entry in the series on HdhQ111 cells [1] is given as “higher significance than P3”. In series [2], the “association of VCP to mtHtt (VCP binding)” value is reported as “exhibited evidence for binding”. Also, in the series with R6/2 mice, the “VCP level on mitochondria of striatum” value is given as “inhibited mitochondrial VCP accumulation to a lesser extent” and the “mtHtt aggregation in striatum” value was “inhibited mtHtt aggregation”. The “decrease in dissociation constant compared to the HV3-TAT peptide” value with VCP (BLI, VCP) is listed as “more than 150 fold”. Moreover, the fragmented mitochondria entry in the series on HdhQ111 cells [3] is “significantly fewer fragmented mitochondria”.

On to “peptide sequence HVLVMCAT (HV3) coupled to the cell penetrating, HIV-derived TAT peptide [HV3-TAT, reference compound]”, for which, on pepsin (isolated enzyme pepsin, 50 min, 200 μM), the “percent cleavage by pepsin” value is reported as 100%. The cell viability result in the series on HdhQ111 cells [1] is reported as “significant increases in cell viability”. Moreover, in series [2], the “association of VCP to mtHtt (VCP binding)” value is “exhibited evidence for binding”. Also, in the series on R6/2 mice, the “VCP level on mitochondria of striatum” value is on record as “blocked aberrant VCP mitochondrial translocation” and the “mtHtt aggregation in striatum” value was “inhibited mtHtt aggregation”. Moreover, at VCP (BLI, VCP), binding was characterised by a dissociation constant (Kd) of 14 µM. Moreover, at VCP (setting [4]), the off-rate constant (koff) – broadly, the rate constant with which the complex falls apart – is 0.023 s⁻¹ and the kon (in general, a measure of how fast the partners come together) is 1600 M⁻¹ s⁻¹. In addition, in the series with HdhQ111 cells [3], the fragmented mitochondria result is on record as “significantly fewer fragmented mitochondria”.
